Experimental data taken from patent US20130310412A1, “Combinations of an Opioid/TLR4 Antagonist and a Direct-Acting Alpha-2 Adrenergic Agonist for Use in the Treatment of Pain” (priority 2010, published 2013).
Like-named read-outs stand apart in the source and are kept apart here.

How the values were obtained:
[1] = target: Toll-like receptor 4 (TLR4) (Homo sapiens, UniProt O00206+Q9Y6Y9); conditions: cited from earlier work
[2] = test system: neuropathic pain; conditions: animal models; cited from earlier work
[3] = test system: opioid receptors; conditions: cited from earlier work
[4] = test system: neuropathic back pain; assay: Naltrexone and clonidine alone and in combination in a human subject: pain treatment effect, weight to weight synergy; assay type: in vivo; conditions: one hour post-dose, naltrexone 4.5 mg alone, clonidine 0.3 mg alone, combinations with naltrexone 2.25 mg
Description: (§1) Naltrexone and clonidine were evaluated alone and in combination on a human subject with the purpose of finding whether or not a combination of the two compounds offers synergistic advantage. Two aspects were evaluated for synergy: one aspect was pain treatment effect comparing the amounts used weight to weight, and the other aspect was an assessment of synergy of side effects.
(§2) The components of the combination were administered to a subject in the following manner: naltrexone 4.5 mg was given in the morning. The clonidine dose was divided into two doses, a dose of 0.1 mg in the morning and a dose of 0.2 mg at bedtime. […] The pain treatment effect of naltrexone and clonidine was evaluated after one hour post-dose.
To determine synergy, the amounts of naltrexone and clonidine administered alone were compared to the combination combined amounts.

[5] = test system: trigeminal neuralgia; assay: Case study trigeminal neuralgia, open label, pain intensity scores and percent relief (baseline days 1-6, study drug days 7-30); assay type: in vivo, human; conditions: from pain level 9
From the text: Trigeminal neuralgia, also known as suicide disease, is a neuropathic disorder characterized by episodes of intense pain in the face, originating from the trigeminal nerve. It has been described as among the most painful conditions known to mankind. This case study is of a person with a three month history of trigeminal neuralgia. […] The pain involved the right check, upper jaw and the upper front teeth. The pain was constant and described as burning, stinging and aching. It was aggravated by eating, brushing teeth, flossing, chewing and talking. The subject's pain level on average was 5, but it would peak to 9. Ibuprofen brought the pain level from 9 to 7 for two hours, vicoden brought their pain level from 9 to 5, but relief lasted only three to four hours. The subject entered open label study for 3 weeks. […].

[6] = Naltrexone and clonidine alone and in combination in a human subject: side effects over 24 hours; conditions: naltrexone 4.5 mg alone, clonidine 0.3 mg alone, combinations with naltrexone 2.25 mg
Description: as §1, §2

[7] = 0.5 mg, 42 IBS patients; cited from earlier work
[8] = cited from earlier work
[9] = full dose; cited from earlier work
[10] = test system: leg pain; assay: Case study leg pain caused by L-5 radiculopathy; assay type: in vivo, human

Sequence of Toll-like receptor 4 (TLR4) (O00206 24-839, species assumed): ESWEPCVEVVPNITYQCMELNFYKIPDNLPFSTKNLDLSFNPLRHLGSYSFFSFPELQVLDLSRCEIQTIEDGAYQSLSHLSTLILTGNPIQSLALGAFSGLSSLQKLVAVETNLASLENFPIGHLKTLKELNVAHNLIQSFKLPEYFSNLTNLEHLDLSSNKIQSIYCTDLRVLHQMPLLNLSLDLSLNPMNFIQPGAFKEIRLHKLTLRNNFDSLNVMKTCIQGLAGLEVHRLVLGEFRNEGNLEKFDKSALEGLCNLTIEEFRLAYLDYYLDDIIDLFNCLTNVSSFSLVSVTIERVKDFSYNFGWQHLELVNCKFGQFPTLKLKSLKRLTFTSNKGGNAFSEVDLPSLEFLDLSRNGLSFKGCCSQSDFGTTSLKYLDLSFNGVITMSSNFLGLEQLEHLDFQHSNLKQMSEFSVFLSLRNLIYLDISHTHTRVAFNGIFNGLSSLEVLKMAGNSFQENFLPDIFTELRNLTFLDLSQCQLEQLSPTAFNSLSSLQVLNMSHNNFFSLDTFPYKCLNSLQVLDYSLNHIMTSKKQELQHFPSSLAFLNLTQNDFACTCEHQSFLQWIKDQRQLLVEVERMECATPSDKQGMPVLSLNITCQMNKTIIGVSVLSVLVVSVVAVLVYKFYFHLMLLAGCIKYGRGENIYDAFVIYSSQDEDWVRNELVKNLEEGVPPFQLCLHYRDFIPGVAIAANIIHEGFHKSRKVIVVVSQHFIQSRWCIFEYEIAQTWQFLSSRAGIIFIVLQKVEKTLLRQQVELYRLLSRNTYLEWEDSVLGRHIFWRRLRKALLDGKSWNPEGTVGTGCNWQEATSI
Sequence of Toll-like receptor 4 (TLR4) (Q9Y6Y9 17-160 limits assumed, species assumed): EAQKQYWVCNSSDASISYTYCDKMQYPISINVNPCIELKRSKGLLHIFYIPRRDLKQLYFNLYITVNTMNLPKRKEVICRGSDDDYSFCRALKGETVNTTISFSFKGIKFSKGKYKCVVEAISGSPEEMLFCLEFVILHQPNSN

## C=CCN1CC[C@]23c4c5ccc(O)c4O[C@H]2C(=O)CC[C@]3(O)[C@H]1C5 [(+)-naloxone]
[1]
  action at TLR4: selective antagonists of TLR4
[2]
  treating symptoms of neuropathic pain: effective

## O=C1CC[C@]2(O)[C@@H]3Cc4ccc(O)c5c4[C@]2(CCN3CC2CC2)[C@@H]1O5 [(+)-naltrexone]
[1]
  action at TLR4: selective antagonists of TLR4
[2]
  treating symptoms of neuropathic pain: effective
[3]
  affinity for opioid receptors: lack affinity

## Clc1cccc(Cl)c1N=C1NCCN1 [Clonidine, clonidine]
[4]
  % reversal of pain: 50%

## CC(C)Cc1ccc(C(C)C(=O)O)cc1 (centres unmarked) [Ibuprofen]
[5]
  pain level with previous medication: 7

## O=C1CC[C@@]2(O)[C@H]3Cc4ccc(O)c5c4[C@@]2(CCN3CC2CC2)[C@H]1O5 [Naltrexone, naltrexone]
[4]
  % reversal of pain: 100%
[6]
  side effects: high incidence of alertness, insomnia and anxiety
[7]
  side effects: no side effects were reported
[1]
  action at TLR4: antagonists for TLR4
[8]; 2.5 mg daily
  Anxiety frequency: 11.9%
  Diarrhea frequency: 6.0%
  Muscle pain frequency: 4.5%
[8]; 5.0 mg daily
  Anxiety frequency: 21.7%
  Diarrhea frequency: 13.0%
  Muscle pain frequency: 15.2%
[8]; 24 patients, of those with side effects
  side effects that were short-lived: 32.4%
[8]; 121 patients
  Abdominal pain, Percentage of Participants: 11.6%
  Anorexia, Percentage of Participants: 8.3%
  Anxiety, Percentage of Participants: 15.7%
  Diarrhea, Percentage of Participants: 8.3%
  Dizziness, Percentage of Participants: 10.7%
  Drowsiness, Percentage of Participants: 11.6%
  Headache, Percentage of Participants: 11.6%
  Insomnia, Percentage of Participants: 8.3%
  Mood change, Percentage of Participants: 3.3%
  Muscle pain, Percentage of Participants: 8.3%
  Nausea, Percentage of Participants: 12.4%
  No side effects, Percentage of Participants: 38.8%
  Terminated Naltrexone because of side effects: 16.5%
  Trouble concentrating, Percentage of Participants: 1.7%
  Vivid dreams, Percentage of Participants: 5.0%
[8]; 121 patients, listed as LDN
  Total side effects, Percentage of Participants: 61%
[8]; 121 patients, listed as Low Dose Naltrexone
  Total side effects, Percentage of Participants: 61.2%
[8]; 121 patients, listed as low dose Naltrexone
  Total side effects, Percentage of Participants: 61/2
[8]; low dose
  incidence of nervousness, insomnia, and anxiety: double digit incidence
[9]
  incidence of nervousness, insomnia, and anxiety: single-digit incidence

## CN1CC[C@]23c4c5ccc(O)c4O[C@H]2[C@@H](O)C=C[C@H]3[C@H]1C5 [morphine]
[1]
  action at TLR4: TLR4 agonists

## C=CCN1CC[C@]23c4c5ccc(O)c4O[C@H]2C(=O)CC[C@@]3(O)[C@H]1C5 [naloxone]
[1]
  action at TLR4: antagonists for TLR4

## Etanercept
[10]; three perispinal injections
  duration of relief from previous treatment: two
  relief from previous treatment: 10%

## botulinum toxin
[10]; in vivo
  duration of relief from previous treatment: two
  relief from previous treatment: 10%
